Reference: paper PMC7463714, “Design and Synthesis of Novel Hybrid 8-Hydroxy Quinoline-Indole Derivatives as Inhibitors of Aβ Self-Aggregation and Metal Chelation-Induced Aβ Aggregation” (Molecules, 2020)
Entries after “also recorded” stand apart in the source; their conditions may differ.

Tests used:
[1] = biological target: T1, Zn^2+-induced Aβ1–42 aggregation (Homo sapiens, UniProt P05067); assay: Zn2+-induced Aβ1–42 aggregation, ThT fluorescence assay; type: biochemical; details: compound 50 µM; Aβ1–42 25 µM; Zn^2+ 25 µM; 24 h, 37 °C
T1 construct: Aβ1–42 (Adooq Bioscience, CA, USA); purchased Adooq Bioscience
T1 sequence (P05067 672-713 limits assumed): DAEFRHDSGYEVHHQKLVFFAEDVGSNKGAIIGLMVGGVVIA
Description: (§1) Initially, CuSO4 or ZnCl2 was added to Aβ1–42 peptides at room temperature and the mixture incubated with or without drugs for 24 h at 37 °C. The fluorescence intensity of Aβ1–42 peptide alone was designated as 100%.
(§2) Mixtures of the peptide (10 µL, 25 µM final concentration) with or without Cu^2+ or Zn^2+ (10 µL, 25 μM final concentration) and the test compound (10 µL, 50 μM final concentration) were incubated at 37 °C for 24 h. Then 50 mM glycine-NaOH buffer (pH 8.0) containing ThT (5 µM) was added to 20 µL of the sample and diluted to afford a final volume of 200 µL. Fluorescence intensities of the solutions were recorded (excitation, 450 nm; emission, 485 nm). The percentage of […] was calculated by the expression (1 − IFi/IFc) × 100, in which IFi and IFc are the fluorescence intensities obtained for Aβ in the presence and absence of inhibitors, respectively.

[2] = biological target: T2, Aβ1–42 (Homo sapiens, UniProt P05067); assay: Self-induced Aβ1–42 aggregation, thioflavin T (ThT) fluorescence assay; type: biochemical; details: 25 µM Aβ1–42; compound 0.3-27 µM; 37 °C, 48 h; ThT fluorescence; read-out: EC50 against self-induced Aβ1–42 aggregation
T2 construct: Aβ1–42 (Adooq Bioscience, CA, USA); purchased Adooq Bioscience
T2 sequence (P05067 672-713 limits assumed): as above
Description: The novel hybrid 8-hydroxyquinoline-indole derivatives, 7a–7e, 12a, 12b, and the (8-hydroxyquinolin-2-yl)methyl-4-(1H-indole-2-carbonyl)piperazine-1-carboxylate analogs 18a–18h were evaluated for inhibitory activity against self-induced Aβ1–42 aggregation at five different concentrations (0.3, 1.0, 3, 9 and 27 µM) with 25 µM Aβ1–42, utilizing a thioflavin T (ThT) fluorescence assay with clioquinol, 1 as a positive control (Figure 3). In the absence of inhibitor, the self-induced Aβ1–42 aggregation ThT fluorescence was recorded as 115 arbitrary units (a.u.). The self-induced Aβ1–42 aggregation results for all the above synthetic analogs from the ThT fluorescence assay are shown in Table 1. […] The thioflavin T (ThT)-fluorescence assay was used to measure the inhibition of Aβ aggregation. Aβ1–42 (Adooq Bioscience, CA, USA) was pretreated with 1 mL of hexafluoroisopropanol (HFIP) to afford a stock solution, which was aliquoted into small samples. The solvent was evaporated at room temperature, and samples were stored at −80 °C. For Aβ1–42 aggregation inhibition experiments, phosphate buffer (pH 7.4) was added to the Aβ stock solution to afford a 50 µM concentration before use. A mixture of the Aβ1–42 peptide (10 µL, 25 µM final concentration) with or without the test compound (10 µL; 0.3, 1.0, 3, 9, and 27 µM) was incubated at 37 °C for 48 h. Blanks using phosphate buffer (pH 7.4) instead of Aβ, with or without test compound, were also assessed. Then 50 mM glycine-NaOH buffer (pH 8.0) containing ThT (5 µM) was added to 20 µL of the sample to afford a final volume of 200 µL. The fluorescence intensities were recorded (excitation, 450 nm; emission, 485 nm). The fluorescence intensities were background corrected to the no enzyme control and 100% of intensity reflected no inhibition of aggregation. To obtain the normalized amyloid aggregation inhibition relative to the control group, the amyloid aggregation/cell values were further divided by the total amyloid fluorescence of the control group. Using GraphPad Prism, the amyloid aggregation values (relative to control group) were entered along the corresponding concentrations for the triplicates and then a log transformation was obtained. Using the dose–response simulation module in GraphPad Prism, nonlinear regression fit (curve) was then generated for each small molecule with various concentrations used. Curves were then compared to determine if they were statistically different, by performing the best-fit values of selected unshared parameters between data sets and extra sum-of-squares F test, allowing for selection of the simpler model unless the P value was less than 0.05. The logEC50 output parameter was then selected to obtain the EC50 for each of the dose–response curves for the small molecules.

[3] = biological target: T3, Cu^2+-induced Aβ1–42 aggregation (Homo sapiens, UniProt P05067); assay: Cu2+-induced Aβ1–42 aggregation, ThT fluorescence assay; type: biochemical; details: compound 50 µM; Aβ1–42 25 µM; Cu^2+ 25 µM; 24 h, 37 °C
T3 construct: Aβ1–42 (Adooq Bioscience, CA, USA); purchased Adooq Bioscience
T3 sequence (P05067 672-713 limits assumed): as above
Description: as §1, §2

[4] = tested on: SY5Y-APPSw cells; assay: Protein aggregation in SY5Y-APPSw cells (ThT staining); type: cell-based; details: 1 µM, 48 h, 37 °C; compared to clioquinol (1)
Description: In another study compounds 7a–7d, 18c–18f, and 18h were also evaluated for their ability to reduce protein aggregation in SY5Y-APPSw cells. SY5Y-APPSw cells were exposed to the above protein aggregation inhibitors and parent compound 1 at 1 µM for 48 h at 37 °C. Cells were assessed for amyloid deposits by staining with 0.1% w/v ThT, counterstaining nuclei with DAPI, and mean ThT fluorescence signal per nucleus calculated over multiple fields. All the analogs reduced fluorescence intensity (indicative of protein aggregation) by 22–67% (P < 0.001 by 2-tailed t-test). […] Thioflavin-T fluorescence assays for in vitro amyloid aggregation and cell culture models of amyloid aggregation overlap but are not identical. This is due to the fact that thioflavin in cell-culture stains not just amyloid aggregates but also other amyloid-like fibrillar structures. Another important difference is that in vitro aggregation is assessed after 24 h, whereas aggregation in cell culture is assessed after 48 h.
(§3) Human Embryonic Kidney cells that overexpress tau protein (HEK-tau) cells or SY5Y neuroblastoma cells that express a familial-AD mutant of amyloid precursor protein (SY5Y-APPSw cells) were each seeded in 96-well plates at 8000 cells per well. After 24 h, cells were supplemented with test compound at 1 µM after diluting with medium. Vehicle only control was also included for each experiment. The cells were cultured for an additional 48 h at 37 °C. Both the cell lines were able to reach approximately 80% confluency in 48 h. Cells were assessed for amyloid deposits by staining with 0.1% w/v ThT, counterstaining nuclei with DAPI, and calculating mean ThT fluorescence signal per nucleus over multiple fields.

[5] = tested on: HEK-tau cells; assay: Protein aggregation in HEK-tau cells (ThT staining); type: cell-based, Human; details: 1 µM, 48 h, 37 °C; compared to clioquinol (1)
Description: In our study, we have shown that restoring metal homeostasis by treatment with hybrid 8-hydroxyquinoline-indole analogs reduces tau- and amyloid-mediated protein aggregation, and their associated neurotoxicity. Analogs 7a–7d, 18c–18f, and 18h were evaluated for their ability to reduce protein aggregation in HEK-tau cells. HEK-tau cells were exposed to the above Aβ1–42 aggregation inhibitors and parent drug clioquinol (1) at 1 µM for 48 h at 37 °C. Cells were assessed for amyloid deposits by staining with 0.1% w/v thioflavin T, counterstaining nuclei with DAPI, and mean ThT fluorescence signal per nucleus was calculated over multiple fields. All the analogs reduced fluorescence intensity (indicative of protein aggregation) by 26–62% (P < 0.001 by 2-tailed t-test).
as §3

Compound	EC50 [2] [µM]	also measured
Oc1c(I)cc(Cl)c2cccnc12 [Compound 1, Clioquinol, reference compound]	9.95	decrease of ThT fluorescence / inhibition of Zn^2+-induced Aβ1–42 aggregation [1]: 57.2%; decrease of ThT fluorescence / inhibition of Cu^2+-induced Aβ1–42 aggregation [3]: 62.5%
O=C(O)c1cc2ccccc2[nH]1 [Compound 5a, 1H-indole-2-carboxylic acid, reference compound]	> 20	
O=C(OCc1ccc2cccc(O)c2n1)c1cc2ccccc2[nH]1 [Compound 7a, (8-Hydroxyquinolin-2-yl)methyl-1H-indole-2-carboxylate]	4.26	protein aggregation inhibition in SY5Y-APPSw cells, result in words [4]: most effective
O=C(OCc1ccc2c(Cl)cc(Cl)c(O)c2n1)c1cc2ccccc2[nH]1 [Compound 7b, (5,7-Dichloro-8-hydroxyquinolin-2-yl)methyl-1H-indole-2-carboxylate]	9.28	
COc1ccc2[nH]c(C(=O)OCc3ccc4cccc(O)c4n3)cc2c1 [Compound 7c, (8-Hydroxyquinolin-2-yl)methyl-5-methoxy-1H-indole-2-carboxylate]	3.22	
O=C(OCc1ccc2cccc(O)c2n1)c1cc2cc(F)ccc2[nH]1 [Compound 7d, (8-Hydroxyquinolin-2-yl)methyl-5-fluoro-1H-indole-2-carboxylate]	6.34	
O=C(OCc1ccc2c(Cl)cc(Cl)c(O)c2n1)c1cc2cc(F)ccc2[nH]1 [Compound 7e, (5,7-Dichloro-8-hydroxyquinolin-2-yl)methyl-5-fluoro-1H-indole-2-carboxylate]	9.52	
O=C(NCc1ccc2c(Cl)cc(Cl)c(O)c2n1)c1cc2ccccc2[nH]1 [Compound 12a, N-((5,7-Dichloro-8-hydroxyquinolin-2-yl)methyl)-1H-indole-2-carboxamide]	> 10	
COc1ccc2[nH]c(C(=O)NCc3ccc4c(Cl)cc(Cl)c(O)c4n3)cc2c1 [Compound 12b, N-((5,7-Dichloro-8-hydroxyquinolin-2-yl)methyl)-5-methoxy-1H-indole-2-carboxamide]	> 10	

The next lines start with results.

EC50 [2] [µM]	Compound	also measured
> 10	O=C(OCc1ccc2cccc(O)c2n1)N1CCN(C(=O)c2cc3ccccc3[nH]2)CC1 [Compound 18a, (8-Hydroxyquinolin-2-yl)methyl-4-(1H-indole-2-carbonyl)piperazine-1-carboxylate]	
> 10	O=C(OCc1ccc2c(Br)cc(Br)c(O)c2n1)N1CCN(C(=O)c2cc3ccccc3[nH]2)CC1 [Compound 18b, (5,7-Dibromo-8-hydroxyquinolin-2-yl)methyl-4-(1H-indole-2-carbonyl)piperazine-1-carboxylate]	
1.72	O=C(OCc1ccc2c(Cl)cc(Cl)c(O)c2n1)N1CCN(C(=O)c2cc3ccccc3[nH]2)CC1 [Compound 18c, (5,7-Dichloro-8-hydroxyquinolin-2-yl)methyl-4-(1H-indole-2-carbonyl)piperazine-1-carboxylate]	decrease of ThT fluorescence / inhibition of Zn^2+-induced Aβ1–42 aggregation [1]: 70.3%; protein aggregation inhibition in SY5Y-APPSw cells, result in words [4]: effective in reducing protein aggregation; decrease of ThT fluorescence / inhibition of Cu^2+-induced Aβ1–42 aggregation [3]: 76.6%; protein aggregation inhibition in HEK-tau cells, result in words [5]: most effective; also recorded: effective in reducing protein aggregation
1.48	COc1ccc2[nH]c(C(=O)N3CCN(C(=O)OCc4ccc5cccc(O)c5n4)CC3)cc2c1 [Compound 18d, (8-Hydroxyquinolin-2-yl)methyl-4-(5-methoxy-1H-indole-2-carbonyl)piperazine-1-carboxylate]	decrease of ThT fluorescence / inhibition of Zn^2+-induced Aβ1–42 aggregation [1]: 59.3%; protein aggregation inhibition in SY5Y-APPSw cells, result in words [4]: most effective; also recorded: effective in reducing protein aggregation; decrease of ThT fluorescence / inhibition of Cu^2+-induced Aβ1–42 aggregation [3]: 66.1%; protein aggregation inhibition in HEK-tau cells, result in words [5]: effective in reducing protein aggregation
2.49	COc1ccc2[nH]c(C(=O)N3CCN(C(=O)OCc4ccc5c(Br)cc(Br)c(O)c5n4)CC3)cc2c1 [Compound 18e, (5,7-Dibromo-8-hydroxyquinolin-2-yl)methyl-4-(5-methoxy-1H-indole-2-carbonyl)piperazine-1-carboxylate]	
> 10	O=C(OCc1ccc2c(Cl)cc(Cl)c(O)c2n1)N1CCN(C(=O)c2cc3cc(F)ccc3[nH]2)CC1 [Compound 18g, (5,7-Dichloro-8-hydroxyquinolin-2-yl)methyl-4-(5-fluoro-1H-indole-2-carbonyl)piperazine-1-carboxylate]	
2.58	O=C(OCc1ccc2cccc(O)c2n1)N1CCN(C(=O)c2cc3cc(F)ccc3[nH]2)CC1 [Compound 18h]	
